Series [1] deals with HCV. The conditions noted are these: ribavirin alone; Davis, Gastroenterology 2000; cited from earlier work.
Series [2] has as its system Vero 76, African green monkey kidney cells.
Series [3] concerns MT-4.
Series [4] deals with BHK.

Results on two compounds are retold here after patent US7365057B2, “Modified 2′ and 3′-nucleoside prodrugs for treating Flavivridae infections” (priority 2002, dated 2008).

As for `NC(=O)c1ncn([C@@H]2O[C@H](CO)[C@@H](O)[C@H]2O)n1` [Ribavirin, 1-β-D-ribofuranosyl-1-1,2,4-triazole-3-carboxamide], in series [1], the “effect on serum levels of HCV-RNA” value is on record as “does not lower serum levels of HCV-RNA” and the “patients in whom serum amino transferase levels are reduced to normal” value is 40%.

For “β-D-2′-C-methyl-7-methyl-6-phenyl-3,3a,5,8a-tetrahydro-1,3,4,5,7a-penta-aza-s-indacen-8-one [Compound F]”, the CC50 in series [2], in series [3] and in series [4] was greater than 100 µM in each case.
